Source: US20200062738A1, “ANTI-CANCER STEMNESS DRUGS” (Development Center for Biotechnology, priority 2017, published 2020)

Columns and labels:
BMI-1 = BMI-1 protein expression by western blot in H1975 cells; format: cell-based, human; details: for BMI-1 protein expression: 10 μM, 6 h, western blot; for inhibition of BMI-1 expression, dose dependence: different concentrations, western blot (#44: 6 h)
Experimental: (§1) The abilities of compounds of the invention to inhibit BMI-1/MCl-1 expressions were assayed with cell cultures. BMI-1 and MCL-1 are overexpressed in many cancers, such as lung cancer cell line H1975. Therefore, cancer cells that overexpress BMI-1/MCL-1 provide a convenient platform for assaying BMI-1/MCL-1 inhibition.
(§2) After drug treatments, cells were washed twice with PBS, scraped, and resuspended in RIPA buffer containing protease inhibitors (20 mM Tris-HCl pH 7.5, 150 mM NaCl, 1 mM Na2EDTA, 1 mM EGTA, 1% NP-40, 1% sodium deoxycholate, 2.5 mM sodium pyrophosphate, 1 mM b-glycerophosphate, 1 mM Na3VO4, 1 μg/ml leupeptin). Cell lysate was sonicated for 5-10 min, and centrifuged at 14000 rpm for 20 minutes at 4° C. The supernatant was collected, determined for protein concentrations, and stored at −80° C. before further use.
(§3) BMI-1/MCL-1 expression levels may be assessed with western blot analysis. […] The denatured protein samples were then loaded in 10% Tris-Glycine SDS polyacrylamide gel for separating proteins. The power supply for the running condition was set at 80 V for running stacking gel and 100 V for separating gel, respectively. […] The power supply for the transfer condition was set at 300 mA, and the transfer was carried out on ice for 2.5 hours. The nitrocellulose membranes containing the denatured proteins were blocked with a solution containing 5% skim milk at room temperature for 1 hour.
After blocking, the membranes were washed with TBS containing 0.1% Tween-20 (TBST) for 5 minutes. […] After washing with TBST (5 min×3), the membranes were incubated with the secondary antibody (HRP-conjugated anti-mouse IgG, Jackson ImmunoReserch LABORATORIES INC., 1:5000) at room temperature for 1 hour. After washing with TBST (5 min×5), the membranes were incubated with chemiluminescence regent for 1 minute and imaged with a Bioluminiscent imaging system (Biospectrum-AC w/Bio Chemi Camera, UVP).

MCL-1 = MCL-1 protein expression by western blot in H1975 cells; format: cell-based, human; details: for MCL-1 protein expression: 10 μM, 6 h, western blot; for inhibition of MCL-1 expression, dose dependence: different concentrations, western blot (#44: 6 h)
Experimental: as §1, §2, §3
In addition, the membranes were also probed with antibodies against MCL-1 and tubulin. Tubulin functions as an internal control to assess the relative loadings in different lanes on the gel. Myeloid cell leukemia 1 (MCL1) is a pro-survival protein overexpressed in many cancers.

H1975-luc cells [1] = assay: Orthotopic H1975-Luc model, treatment starting 3 weeks after tumor implantation (FIG. 5); format: in vivo, mice; details: for tumor inhibition rate: day 21
Text: (§4) Mice were orthotopically implanted with H1975-luc cells (10^6 cells/mouse). On day 0 (defined as 3 weeks after tumor implantation), mice were imaged and started to receive drug treatments for 3 weeks (5 times/week). The tumor growths were followed by non-invasive imaging weekly.
(§5) The mouse cancer models were generated as described above. Orthotopic H1975-Luc model was described as previous study. BI-44 was administrated by IV injection through tail vein, 5 times/7 days, with the doses indicated on the figure. Gefitinib and Afatinib were administrated orally, 5 times/7 days, with the dose of 20 mpk (mg/Kg).
as §4, with “In the second model, BI-44 was administrated starting 3 weeks after tumor implantation (FIG. 5A) when all the mice contained defined luciferase signals in lungs. Then, tumor growths were followed for 3 weeks (FIG. 5A). Mice” for “Mice”, “H1975-Luc” for “H1975-luc”

H1975-luc cells [2] = assay: Orthotopic H1975-luc model, treatment starting 2 days after tumor implantation (FIG. 4); format: in vivo, mice; details: for tumor-free rate: 3 mpk IV, 5 times/week
Text: (§6) Mice were orthotopically implanted with H1975-luc cells (10^6 cells/mouse). On day 0 (defined as 2 days after tumor implantation), mice were given drug treatments for 4 weeks (5 times/week), and the tumor formations were followed by non-invasive imaging on days 14 and 28.
as §5
as §6, with “In the first animal model, Mice” for “Mice”, “were started to receive” for “were given”, “on day” for “on days”
BI-44 was administrated starting 2 days after orthotopic lung tumor implantation according to the administration scheme shown in FIG. 4A, and the tumor formations were evaluated via non-invasive bioluminescent imaging on days 14 and 28.

H1975-Luc cells [3] = assay: In vivo anti-tumor test, orthotopic H1975-Luc mouse tumor model (FIG. 3); set-up: species or system SCID mice; details: 1 mpk IV tail vein, 5 times/7 days, 3 weeks
Text: Mice were orthotopically implanted with H1975-luc cells (10^6 cells/mouse), and started to receive drug treatments for 3 weeks. The tumor growths were followed by non-invasive bioluminescent imaging, and quantified. […] Tarceva ([…]) was administrated orally (20 mpk, 5 times/7 days). N=5 to 7 for each group.
The derivatives showing potent anti-BMI-1/MCL-1 effects, such as compounds #43-45 (BI-43-BI-45), were selected for further in vivo anti-tumor test. The in vivo mouse tumor model was established as described below. • 1. SCID mice (70 mice, about […]) were quarantined for one week before lung cancer cells are implanted into their chest cavities. • 2. Before implanting the cancer cells into the mouse chest cavities, the mice were anesthetized with gas anesthesia. The mice were placed in a transparent acrylic box of 20 cm×10 cm×10 cm, which was connected with a flexible tubing to an anesthesia machine and an oxygen tank. Then, an appropriate amount of anesthesia (Isoflurane) was introduced into the anesthesia machine and the valve is open. […] One week after intra-thoracic implant of cancer cells, a luminescence reagent (D-luciferin) was injected into the abdominal cavities of the mice. […]
After establishment of the tumors in mice, the test compounds were administered at the indicated doses and the tumor sizes were monitored using bioluminescence. […]

With `COc1cc(Br)c(Nc2nc(-c3c(C)nc4ncccn34)cs2)c(Br)c1` [Compound 43] the BMI-1 protein expression (BMI-1) was “significantly reduced” and the MCL-1 protein expression (MCL-1) was “significantly reduced”.
In the case of `O=C(Nc1cccc(Cl)c1)Nc1cccc(-c2cccc3cc[nH]c23)c1` [Compound 45], the BMI-1 protein expression (BMI-1) is reported as “significantly reduced” and the MCL-1 protein expression (MCL-1) is reported as “significantly reduced”.
In the case of `CCc1ccc(C(=O)Nc2cccc(-c3cccc4cc[nH]c34)c2)cc1` [Compound 44, N-(3-(1H-indol-7-yl)phenyl)-4-ethylbenzamide], the BMI-1 protein expression (BMI-1) is reported as “significantly reduced”, the “inhibition of BMI-1 expression, dose dependence” value (BMI-1) is reported as “inhibits the expressions of BMI-1 and MCL-1 in a dose-dependent manner” and the “inhibition of BMI-1 expression, dose dependence” value (BMI-1; listed as #44) is reported as “effectively inhibited the expressions of BMI-1 and MCL-1 at sub-μM concentrations”. The tumor inhibition rate (H1975-luc cells [1]; 3 mpk IV) was “around 90%”, the tumor inhibition rate (H1975-luc cells [1]; 9 mpk IV) was “around 90%” and the tumor growth inhibition (H1975-luc cells [1]; IV 5 times/week for 3 weeks, 1, 3, 9 mpk) was “significantly inhibited tumor growth in a dose-dependent manner”. The tumor-free rate (H1975-luc cells [2]; day 14) was 62.5%, the tumor-free rate (H1975-luc cells [2]; day 28) was 37.5% and the “tumor inhibition rate as compared to control” value (H1975-luc cells [2]; BI-44 3 mpk IV, day 28) was “around 80%”. The “bioluminescent intensities in mice lungs” value (H1975-luc cells [2]; BI-44 3 mpk IV, days 14 and 28) was “significantly reduced bioluminescent intensities”, the “anti-tumor growth effects (bioluminescence)” value (H1975-Luc cells [3]) was “most significant anti-tumor growth effects” and the MCL-1 protein expression (MCL-1) was “significantly reduced”. For the same compound, the “inhibition of MCL-1 expression, dose dependence” value (MCL-1) was “inhibits the expressions of BMI-1 and MCL-1 in a dose-dependent manner” and the “inhibition of MCL-1 expression, dose dependence” value (MCL-1; listed as #44) was “effectively inhibited the expressions of BMI-1 and MCL-1 at sub-μM concentrations”.
For `CN(C)C/C=C/C(=O)Nc1cc2c(Nc3ccc(F)c(Cl)c3)ncnc2cc1O[C@H]1CCOC1` [Afatinib, reference compound], the “tumor inhibition rate as compared to control” value (H1975-luc cells [2]; Afatinib 20 mpk orally, day 28) was “around 80%”.
